From PMC9544187 (Environmental Toxicology and Chemistry, 2022)
Read-outs that look alike come from different tables or passages of the source.

How the values were obtained:
[1] = Urinary concentrations of NNI compounds in wild raccoons; assay type: in vivo, raccoon, Procyon lotor; settings: for GM ± SD urinary concentration / Percentile 25th urinary concentration / Percentile 50th urinary concentration / Percentile 75th urinary concentration / Percentile 95th urinary concentration / Percentile 100th urinary concentration: raccoon urine, n = 59
[2] = Japanese people, n = 45; ref Ikenaka et al. ([2019]); cited from earlier work
[3] = obtained from previous studies on humans; ref Ikenaka et al., [2019]; cited from earlier work
[4] = mice, 78‐week carcinogenicity study; ref Hirano et al., [2018]; cited from earlier work
[5] = Raccoons: present study (n = 59)

| SMILES | Mean urinary neonicotinoid concentration [1, 5] [µg/g creatinine] | GM ± SD urinary concentration ([1]; creatinine‐adjusted) [μg/g creatinine] | Percentile 25th urinary concentration ([1]; creatinine‐adjusted) | Percentile 50th urinary concentration ([1]; creatinine‐adjusted) | Percentile 75th urinary concentration ([1]; creatinine‐adjusted) | Percentile 95th urinary concentration ([1]; creatinine‐adjusted) | Percentile 100th urinary concentration ([1]; creatinine‐adjusted) | GM ± SD urinary concentration ([1]; volume‐adjusted) [µg/L] | Percentile 25th urinary concentration ([1]; volume‐adjusted) | Percentile 50th urinary concentration ([1]; volume‐adjusted) | Percentile 75th urinary concentration ([1]; volume‐adjusted) | Percentile 95th urinary concentration ([1]; volume‐adjusted) | Percentile 100th urinary concentration ([1]; volume‐adjusted) | Maximum urinary neonicotinoid concentration [2] [µg/g creatinine] | Mean urinary neonicotinoid concentration [2] [µg/g creatinine] | urinary excretion correction coefficient r [3] | Maximum urinary neonicotinoid concentration [1, 5] [µg/g creatinine] | no‐observable‐adverse‐effect level (NOAEL) [4] [mg/kg] |
| --- | --- | --- | --- | --- | --- | --- | --- | --- | --- | --- | --- | --- | --- | --- | --- | --- | --- | --- |
| CN1COCN(Cc2cnc(Cl)s2)/C1=N\[N+](=O)[O-] [Thiamethoxam, thiamethoxam] | 0.29 | 0.10 ± 0.95 | <PQL | <PQL | <PQL | 0.5 µg/g creatinine | 6.96 µg/g creatinine | 0.07 ± 0.95 | <PQL | <PQL | <PQL | 0.42 µg/L | 7.30 µg/L | 2.11 | 0.17 | 0.6 | – | – |
| C/C(=N\C#N)N(C)Cc1ccc(Cl)nc1 [Acetamiprid, acetamiprid] | 0.28 | 0.10 ± 0.74 | <PQL | <PQL | 0.25 µg/g creatinine | 0.79 µg/g creatinine | 5.61 µg/g creatinine | 0.07 ± 0.20 | <PQL | <PQL | 0.23 µg/L | 0.33 µg/L | 1.29 µg/L | 1.03 | 0.043 | 0.586 | – | – |
| CN/C(=N/CC1CCOC1)N[N+](=O)[O-] (stereo not drawn) [Dinotefuran, dinotefuran] | 0.74 | 0.37 ± 1.64 | <PQL | <PQL | <PQL | 1.38 µg/g creatinine | 10.28 µg/g creatinine | 0.25 ± 0.76 | <PQL | <PQL | <PQL | 1.11 µg/L | 5.67 µg/L | 9.49 | 0.57 | 0.899 | – | – |
| C/C(=N\C#N)NCc1ccc(Cl)nc1 [N‐dm‐acetamiprid, N‐desmethyl‐acetamiprid] | 2.48 | 0.16 ± 10.78 | <PQL | <PQL | 0.35 µg/g creatinine | 8.28 µg/g creatinine | 76.56 µg/g creatinine | 0.11 ± 9.33 | <PQL | <PQL | 0.22 µg/L | 3.28 µg/L | 71.28 µg/L | 26.92 | 2.2 | – | – | – |
| CCN(Cc1ccc(Cl)nc1)/C(=C/[N+](=O)[O-])NC [Nitenpyram, nitenpyram] | 0 | – | <PQL | <PQL | <PQL | <PQL | <PQL | – | <PQL | <PQL | <PQL | <PQL | <PQL | 1.25 | 0.1 | – | 0 | – |
| N#C/N=C1\SCCN1Cc1ccc(Cl)nc1 [Thiacloprid, thiacloprid] | 0.09 | 0.03 ± 0.44 | <PQL | <PQL | <PQL | <PQL | 3.41 µg/g creatinine | 0.02 ± 0.04 | <PQL | <PQL | <PQL | <PQL | 0.32 µg/L | 0.2 | 0.03 | 0.05 | – | – |
| CN/C(=N\[N+](=O)[O-])NCc1cnc(Cl)s1 [Clothianidin, clothianidin] | 0.81 | 0.26 ± 1.65 | <PQL | 0.21 µg/g creatinine | 0.43 µg/g creatinine | 4 µg/g creatinine | 9.4 µg/g creatinine | 0.17 ± 0.89 | <PQL | 0.14 µg/L | 0.45 µg/L | 2.62 µg/L | 4.33 µg/L | 15.06 | 1.06 | 0.596 | – | ~50 |
| O=[N+]([O-])NC1=NCCN1Cc1ccc(Cl)nc1 [Imidacloprid, imidacloprid] | 0.23 | 0.08 ± 0.75 | <PQL | <PQL | <PQL | 0.43 µg/g creatinine | 5.76 µg/g creatinine | 0.06 ± 0.20 | <PQL | <PQL | <PQL | 0.36 µg/L | 1.45 µg/L | 1.59 | 0.13 | 0.133 | – | – |
